How the values were obtained:
Format in all cases: in vivo
[1] = tested on: wheat (Triticum aestivum); assay: Test A postemergence
In short: (§1)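 In a loam soil and sand blend, planted seeds got a preemergence directed soil spray, and young plants at the one- to two-leaf stage, 2–10 cm high, got a postemergence application; ~10 d greenhouse hold; injury rated visually, 0 = none, 100 = complete control.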

[2] = tested on: pigweed (Amaranthus retroflexus); assay: Test A postemergence
In short: as §1

Kochia (Kochia scoparia) [3] = assay: Test A postemergence
In short: as §1

[4] = tested on: ragweed (common ragweed, Ambrosia elatior); assay: Test A postemergence
In short: as §1

[5] = tested on: giant foxtail (Setaria faberii); assay: Test A postemergence
In short: as §1

[6] = tested on: Galium (catchweed bedstraw, Galium aparine); assay: Test A postemergence
In short: as §1

[7] = tested on: blackgrass (Alopecurus myosuroides); assay: Test A postemergence
In short: as §1

[8] = tested on: barnyardgrass (Echinochloa crus-galli); assay: Test A postemergence
In short: as §1

corn (Zea mays) = assay: Test A postemergence
In short: as §1

[9] = tested on: ryegrass, Italian (Italian ryegrass, Lolium multiflorum); assay: Test A postemergence
In short: as §1

[10] = tested on: pigweed (Amaranthus retroflexus); assay: Test A preemergence
Kochia (Kochia scoparia) [11] = assay: Test A preemergence
In short: as §1

[12] = tested on: ragweed (common ragweed, Ambrosia elatior); assay: Test A preemergence
In short: as §1

[13] = tested on: giant foxtail (Setaria faberii); assay: Test A preemergence
In short: as §1

[14] = tested on: barnyardgrass (Echinochloa crus-galli); assay: Test A preemergence
In short: as §1

[15] = tested on: ryegrass, Italian (Italian ryegrass, Lolium multiflorum); assay: Test A preemergence
In short: as §1

[16] = tested on: sedge, umbrella (small-flower umbrella sedge, Cyperus difformis); assay: Test B flooded paddy test; conditions: Flood, 250 g ai/ha; 0 to 100 scale where 0 is no effect and 100 is complete control; 13 to 15 d
In short: (§2)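 Plants at 2-leaf stage flooded to 3 cm above soil, with compounds applied directly to paddy water and that depth maintained. Plants kept in greenhouse 13–15 d. Visual rating versus controls on a 0 (no effect) to 100 (complete control) scale.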

[17] = tested on: barnyardgrass (Echinochloa crus-galli); assay: Test B flooded paddy test; conditions: Flood, 250 g ai/ha; 0 to 100 scale where 0 is no effect and 100 is complete control; 13 to 15 d
In short: as §2

[18] = tested on: ducksalad (Heteranthera limosa); assay: Test B flooded paddy test; conditions: Flood, 250 g ai/ha; 0 to 100 scale where 0 is no effect and 100 is complete control; 13 to 15 d
In short: as §2

rice (Oryra sativa) = assay: Test B flooded paddy test; conditions: Flood, 250 g ai/ha; 0 to 100 scale where 0 is no effect and 100 is complete control; 13 to 15 d
In short: as §2

[19] = 125 g ai/ha, postemergence, visual rating after approx. 10 d, 0 to 100 scale (0 no effect, 100 complete control)
[20] = Postemergence, 500 g ai/ha, 0 to 100 scale where 0 is no effect and 100 is complete control
[21] = 125 g ai/ha, Preemergence, visual injury after approximately 10 d, 0 to 100 scale where 0 is no effect and 100 is complete control
[22] = 500 g ai/ha, preemergence, 0 to 100 scale, 0 = no effect, 100 = complete control

CN1CC(c2ccc(F)c(C(F)(F)F)c2)C(C(=O)Nc2ccccc2S(C)(=O)=O)C1=O (stereo not drawn) [Compound 612]
Plant response rating, Wheat [1, 19]: 30 | Plant response rating, Wheat [1, 20]: 30 | Plant response rating, Pigweed [2, 19]: 20 | Plant response rating, Pigweed [2, 20]: 50 | Plant response rating, Kochia (Kochia (Kochia scoparia) [3]; [19]): 20 | Plant response rating, Kochia (Kochia (Kochia scoparia) [3]; [20]): 40 | Plant response rating, Ragweed [4, 19]: 0 | Plant response rating, Ragweed [4, 20]: 20 | Plant response rating, Foxtail, Giant [5, 19]: 70 | Plant response rating, Foxtail, Giant [5, 20]: 90 | Plant response rating, Galium [6, 19]: 30 | Plant response rating, Galium [6, 20]: 50 | Plant response rating, Blackgrass [7, 19]: 40 | Plant response rating, Blackgrass [7, 20]: 60 | Plant response rating, Barnyardgrass [8, 19]: 70 | Plant response rating, Barnyardgrass [8, 20]: 90 | Plant response rating, Corn (corn (Zea mays); [19]): 50 | Plant response rating, Corn (corn (Zea mays); [20]): 90 | Plant response rating, Ryegrass, Italian [9, 19]: 20 | Plant response rating, Ryegrass, Italian [9, 20]: 70 | Plant response rating, Pigweed [10, 21]: 70 | Plant response rating, Pigweed [10, 22]: 70 | Plant response rating, Kochia (Kochia (Kochia scoparia) [11]; [21]): 20 | Plant response rating, Kochia (Kochia (Kochia scoparia) [11]; [22]): 20 | Plant response rating, Ragweed [12, 21]: 50 | Plant response rating, Ragweed [12, 22]: 50 | Plant response rating, Foxtail, Giant [13, 21]: 90 | Plant response rating, Foxtail, Giant [13, 22]: 90 | Plant response rating, Barnyardgrass [14, 21]: 90 | Plant response rating, Barnyardgrass [14, 22]: 90 | Plant response rating, Ryegrass, Italian [15, 21]: 50 | Plant response rating, Ryegrass, Italian [15, 22]: 70 | Plant response rating, Sedge, Umbrella [16]: 85 | Plant response rating, Barnyardgrass [17]: 65 | Plant response rating, Ducksalad [18]: 100 | Plant response rating, Rice (rice (Oryra sativa)): 15

— patent US12077503B2, “Substituted cyclic amides and their use as herbicides” (FMC CORPORATION, priority 2015, dated 2024)
